The numbers were not newly measured in patent publication US8679103B2, “Two step mammalian biofilm treatment processes and systems” (priority 2008, dated 2014), which cites them from elsewhere.

Structures are written as SMILES. Values after ≈ are worked out from the molar mass of the structure shown.

The data set has as its system S. aureus Xen 31. Conditions: stated as established.

On to `O=C(O)c1cn(C2CC2)c2cc(N3CCNCC3)c(F)cc2c1=O` [ciprofloxacin], for which the minimum inhibitory concentration is 3 µg/mL (≈ 9.05 µM).
